Measured values taken from patent US10584128B2, “Bicyclic dihydropyrimidine-carboxamide derivatives as Rho-Kinase inhibitors” (CHIESI FARMACEUTICI S.p.A., priority 2016, dated 2020).

Assays:
Rho kinase 1 = Rho kinase 1 (Homo sapiens, UniProt Q13464); experiment: In vitro Rho kinase inhibitory activity assay (ADP-Glo kit, Myelin Basic Protein substrate); type: biochemical; conditions: 10 μM ATP, 25° C., read-out: ROCK1 inhibitory activity (Ki, range of activity)
Procedure: (§1) The effectiveness of compounds of the present invention to inhibit Rho kinase activity can be determined in a 10 μl assay containing 40 mM Tris pH7.5, 20 mM MgCl2 0.1 mg/ml BSA, 50 μM DTT and 2.5 μM peptide substrate (Myelin Basic Protein) using an ADP-Glo kit (Promega). Compounds were dissolved in DMSO such that the final concentration of DMSO was 1% in the assay. All reactions/incubations are performed at 25° C. Compound (2 ul) and either Rho kinase 1 or 2 (4 μl) were mixed and incubated for 30 mins. Reactions were initiated by addition of ATP (4 μl) such that the final concentration of ATP in the assay was 10 μM. After a 1 hour incubation 10 μl of ADP-Glo Reagent was added and after a further 45 minute incubation 20 ul of Kinase Detection Buffer was added and the mixture incubated for a further 30 minutes. The luminescent signal was measured on a luminometer. […] Compounds were tested in dose-response format and the inhibition of kinase activity was calculated at each concentration of compound. To determine the IC50 (concentration of compound required to inhibit 50% of the enzyme activity) data were fit to a plot of % inhibition vs Log10 compound concentration using a sigmoidal fit with a variable slope and fixing the maximum to 100% and the minimum to 0%. To determine the Ki values the Cheng-Prusoff equation was utilized (Ki=IC50/(1+[S]/Km).

Rho kinase 2 = Rho kinase 2 (Homo sapiens, UniProt O75116); experiment: as above; type: biochemical; conditions: 10 μM ATP, 25° C., read-out: ROCK2 inhibitory activity (Ki, range of activity)
Sequence of Rho kinase 2 (O75116 whole entry): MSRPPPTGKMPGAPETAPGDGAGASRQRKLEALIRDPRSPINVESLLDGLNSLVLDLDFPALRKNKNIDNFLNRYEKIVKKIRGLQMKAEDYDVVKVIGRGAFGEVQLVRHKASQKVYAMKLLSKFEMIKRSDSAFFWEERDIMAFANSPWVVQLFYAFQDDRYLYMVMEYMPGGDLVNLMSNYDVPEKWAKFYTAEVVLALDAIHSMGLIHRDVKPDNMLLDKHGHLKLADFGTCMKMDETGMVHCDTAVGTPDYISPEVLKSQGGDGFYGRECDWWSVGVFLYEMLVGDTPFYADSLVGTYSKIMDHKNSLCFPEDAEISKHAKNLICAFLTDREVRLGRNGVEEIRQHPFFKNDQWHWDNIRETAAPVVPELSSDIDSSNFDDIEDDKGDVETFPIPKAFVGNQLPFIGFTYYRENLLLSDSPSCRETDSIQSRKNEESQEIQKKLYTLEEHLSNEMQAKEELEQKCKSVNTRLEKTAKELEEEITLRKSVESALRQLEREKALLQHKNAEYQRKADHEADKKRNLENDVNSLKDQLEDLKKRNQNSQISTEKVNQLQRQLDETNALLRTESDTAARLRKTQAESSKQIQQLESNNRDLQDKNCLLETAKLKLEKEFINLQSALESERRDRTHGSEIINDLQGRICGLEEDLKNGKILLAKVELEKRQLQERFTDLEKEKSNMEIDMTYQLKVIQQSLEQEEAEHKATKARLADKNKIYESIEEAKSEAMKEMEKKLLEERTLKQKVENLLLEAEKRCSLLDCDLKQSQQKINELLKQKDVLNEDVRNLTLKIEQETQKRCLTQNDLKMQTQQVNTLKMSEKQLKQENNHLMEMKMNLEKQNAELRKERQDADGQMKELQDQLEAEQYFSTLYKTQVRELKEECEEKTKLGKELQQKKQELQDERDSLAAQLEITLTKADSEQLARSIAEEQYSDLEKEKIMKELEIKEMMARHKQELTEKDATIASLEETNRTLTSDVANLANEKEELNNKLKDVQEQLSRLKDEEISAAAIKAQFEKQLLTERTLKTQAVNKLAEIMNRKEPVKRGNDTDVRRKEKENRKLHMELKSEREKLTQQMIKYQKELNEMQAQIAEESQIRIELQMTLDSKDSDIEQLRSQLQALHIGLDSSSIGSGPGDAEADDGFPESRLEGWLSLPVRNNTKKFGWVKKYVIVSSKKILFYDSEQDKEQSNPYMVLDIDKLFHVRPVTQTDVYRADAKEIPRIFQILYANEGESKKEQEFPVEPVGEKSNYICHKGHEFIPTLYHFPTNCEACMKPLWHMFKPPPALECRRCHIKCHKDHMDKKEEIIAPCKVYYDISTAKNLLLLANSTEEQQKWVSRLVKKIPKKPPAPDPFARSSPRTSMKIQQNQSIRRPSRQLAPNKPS
Procedure: as §1

Sequence of Rho kinase 1 (Q13464 whole entry): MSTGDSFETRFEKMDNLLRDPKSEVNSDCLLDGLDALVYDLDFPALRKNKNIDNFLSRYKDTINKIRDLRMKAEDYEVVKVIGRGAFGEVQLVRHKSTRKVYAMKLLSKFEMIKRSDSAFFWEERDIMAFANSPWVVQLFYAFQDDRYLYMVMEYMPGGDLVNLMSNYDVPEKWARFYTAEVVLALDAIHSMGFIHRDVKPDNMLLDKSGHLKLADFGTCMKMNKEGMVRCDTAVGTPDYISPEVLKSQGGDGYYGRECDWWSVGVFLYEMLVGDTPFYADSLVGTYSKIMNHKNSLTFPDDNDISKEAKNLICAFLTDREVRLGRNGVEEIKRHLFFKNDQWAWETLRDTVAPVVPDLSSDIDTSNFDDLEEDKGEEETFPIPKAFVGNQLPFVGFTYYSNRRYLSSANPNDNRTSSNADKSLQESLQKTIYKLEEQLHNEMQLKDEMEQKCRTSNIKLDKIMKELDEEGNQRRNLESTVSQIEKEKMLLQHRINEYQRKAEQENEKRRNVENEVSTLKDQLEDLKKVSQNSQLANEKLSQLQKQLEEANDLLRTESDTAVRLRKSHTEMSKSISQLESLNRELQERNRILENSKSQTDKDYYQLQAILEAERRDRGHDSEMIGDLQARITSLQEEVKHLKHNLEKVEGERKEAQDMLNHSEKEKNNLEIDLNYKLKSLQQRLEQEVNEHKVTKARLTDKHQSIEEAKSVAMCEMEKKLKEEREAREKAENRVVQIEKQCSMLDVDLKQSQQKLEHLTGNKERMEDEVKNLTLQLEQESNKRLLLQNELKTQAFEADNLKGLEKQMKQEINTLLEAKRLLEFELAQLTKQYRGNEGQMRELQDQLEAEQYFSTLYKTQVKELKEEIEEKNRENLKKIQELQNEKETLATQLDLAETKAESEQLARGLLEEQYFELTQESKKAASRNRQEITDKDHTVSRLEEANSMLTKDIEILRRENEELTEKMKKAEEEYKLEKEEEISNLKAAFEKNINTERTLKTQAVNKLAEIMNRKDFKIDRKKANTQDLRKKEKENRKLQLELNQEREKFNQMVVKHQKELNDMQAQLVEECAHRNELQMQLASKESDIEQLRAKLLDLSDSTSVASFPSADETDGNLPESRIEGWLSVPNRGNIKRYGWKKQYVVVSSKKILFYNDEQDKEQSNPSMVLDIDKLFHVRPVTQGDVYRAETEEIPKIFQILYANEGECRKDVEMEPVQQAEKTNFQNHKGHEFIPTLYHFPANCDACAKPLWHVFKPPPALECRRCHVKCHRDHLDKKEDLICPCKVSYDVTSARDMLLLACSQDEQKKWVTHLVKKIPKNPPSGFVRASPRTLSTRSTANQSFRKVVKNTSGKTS

SMILES | Ki (Rho kinase 1) | Ki (Rho kinase 2)
CC1=C(C(=O)Nc2ccc3cnccc3c2)C(c2ccc(C(F)(F)F)c(F)c2)n2nc(C(=O)NCCN3CCCCC3)nc2N1 (single isomer, unassigned) [Example 129b, 7-(3-fluoro-4-(trifluoromethyl)phenyl)-N6-(isoquinolin-6-yl)-5-methyl-N2-(2-(piperidin-1-yl)ethyl)-4,7-dihydro-[1,2,4]triazolo[1,5-a]pyrimidine-2,6-dicarboxamide] | < 50 nM | 
CC1=C(C(=O)Nc2ccc3[nH]ncc3c2)C(c2ccc(Cl)nc2)n2nc(C(F)(F)F)cc2N1 (single isomer, unassigned) [Example 32B, 7-(6-chloropyridin-3-yl)-N-(1H-indazol-5-yl)-5-methyl-2-(trifluoromethyl)-4,7-dihydropyrazolo[1,5-a]pyrimidine-6-carboxamide] | < 50 nM | < 50 nM
CC1=C(C(=O)Nc2ccc3[nH]ncc3c2)C(c2ccc(C(F)(F)F)cc2)n2nc(C#N)cc2N1 (stereo not shown) [Example 34, 2-cyano-N-(1H-indazol-5-yl)-5-methyl-7-(4-(trifluoromethyl)phenyl)-4,7-dihydropyrazolo[1,5-a]pyrimidine-6-carboxamide] | < 50 nM | < 50 nM
CC1=C(C(=O)Nc2ccc3[nH]ncc3c2)C(c2ccc(C(F)(F)F)cc2)n2nc(C(=O)N3CCN(C)CC3)cc2N1 (stereo not shown) [Example 76, N-(1H-indazol-5-yl)-5-methyl-2-(4-methylpiperazine-1-carbonyl)-7-(4-(trifluoromethyl)phenyl)-4,7-dihydropyrazolo[1,5-a]pyrimidine-6-carboxamide] | < 50 nM | < 50 nM
CC1=C(C(=O)Nc2ccc3[nH]ncc3c2)C(c2ccc(F)cc2)n2ncc(C#N)c2N1 (stereo not shown) [Example 18, 3-cyano-7-(4-fluorophenyl)-N-(1H-indazol-5-yl)-5-methyl-4,7-dihydropyrazolo[1,5-a]pyrimidine-6-carboxamide] | < 50 nM | < 50 nM
CC1=C(C(=O)Nc2ccc3cnccc3c2)C(c2ccc(C(F)(F)F)c(F)c2)n2nc(C(=O)N(C)CC3CCN(C)CC3)cc2N1 (stereo not shown) [Example 85, 7-(3-fluoro-4-(trifluoromethyl)phenyl)-N6-(isoquinolin-6-yl)-N2,5-dimethyl-N2-((1-methylpiperidin-4-yl)methyl)-4,7-dihydropyrazolo[1,5-a]pyrimidine-2,6-dicarboxamide] | < 50 nM | < 50 nM
CCOC(=O)c1cc2n(n1)C(C1CCN(C)CC1)C(C(=O)Nc1ccc3[nH]ncc3c1)=C(C)N2 (stereo not shown) [Example 12, ethyl 6-((1H-indazol-5-yl)carbamoyl)-5-methyl-7-(1-methylpiperidin-4-yl)-4,7-dihydropyrazolo[1,5-a]pyrimidine-2-carboxylate] | > 500 nM | > 500 nM
CC1=C(C(=O)Nc2ccc3cnccc3c2)C(c2ccc(C(F)(F)F)c(F)c2)n2nc(C(=O)N(C)CCN3CCCCC3)cc2N1 (single isomer, unassigned) [Example 78A, 7-(3-fluoro-4-(trifluoromethyl)phenyl)-N6-(isoquinolin-6-yl)-N2,5-dimethyl-N2-(2-(piperidin-1-yl)ethyl)-4,7-dihydropyrazolo[1,5-a]pyrimidine-2,6-dicarboxamide] | 50 to 500 nM | < 50 nM
COCC1=C(C(=O)Nc2ccc3cnccc3c2)C(c2ccc(C(F)(F)F)c(F)c2)n2nc(CO)cc2N1 (stereo not shown) [Example 119, 7-(3-fluoro-4-(trifluoromethyl)phenyl)-2-(hydroxymethyl)-N-(isoquinolin-6-yl)-5-(methoxymethyl)-4,7-dihydropyrazolo[1,5-a]pyrimidine-6-carboxamide] | < 50 nM | < 50 nM
COCCN(C)Cc1cc2n(n1)C(c1ccc(C(F)(F)F)c(F)c1)C(C(=O)Nc1ccc3cnccc3c1)=C(C)N2 (stereo not shown) [Example 98, 7-(3-fluoro-4-(trifluoromethyl)phenyl)-N-(isoquinolin-6-yl)-2-(((2-methoxyethyl)(methyl)amino)methyl)-5-methyl-4,7-dihydropyrazolo[1,5-a]pyrimidine-6-carboxamide] | < 50 nM | < 50 nM
CC1=C(C(=O)Nc2ccc3cnccc3c2)C(c2ccc(Cl)cc2)n2nc(CO)cc2N1 (single isomer, unassigned) [Example 62B, 7-(4-chlorophenyl)-2-(hydroxymethyl)-N-(isoquinolin-6-yl)-5-methyl-4,7-dihydropyrazolo[1,5-a]pyrimidine-6-carboxamide] | 50 to 500 nM | 50 to 500 nM
CC1=C(C(=O)Nc2ccc3[nH]ncc3c2)C(c2ccc(F)cc2)n2ncc(C(N)=O)c2N1 (stereo not shown) [Example 19, 7-(4-fluorophenyl)-N6-(1H-indazol-5-yl)-5-methyl-4,7-dihydropyrazolo[1,5-a]pyrimidine-3,6-dicarboxamide] | 50 to 500 nM | 50 to 500 nM
CC1=C(C(=O)Nc2ccc3cnccc3c2)C(c2ccc(C(F)(F)F)c(F)c2)n2nc(CN(C)C)cc2N1 (single isomer, unassigned) [Example 94B, 2-((dimethylamino)methyl)-7-(3-fluoro-4-(trifluoromethyl)phenyl)-N-(isoquinolin-6-yl)-5-methyl-4,7-dihydropyrazolo[1,5-a]pyrimidine-6-carboxamide] | < 50 nM | < 50 nM
CC1=C(C(=O)Nc2ccc3cnccc3c2)C(c2cnc(-c3ccccc3)o2)n2nc(CO)cc2N1 (stereo not shown) [Example 49, 2-(hydroxymethyl)-N-(isoquinolin-6-yl)-5-methyl-7-(2-phenyloxazol-5-yl)-4,7-dihydropyrazolo[1,5-a]pyrimidine-6-carboxamide] | 50 to 500 nM | < 50 nM
CC1=C(C(=O)Nc2ccc3[nH]ncc3c2)C(c2ccc(Cl)cc2)n2nnnc2N1 (single isomer, unassigned) [Example 24B, 7-(4-chlorophenyl)-N-(1H-indazol-5-yl)-5-methyl-4,7-dihydrotetrazolo[1,5-a]pyrimidine-6-carboxamide] | 50 to 500 nM | 50 to 500 nM
CC1=C(C(=O)Nc2ccc3cnccc3c2)C(c2ccc3ncn(C)c3c2)n2nc(CO)cc2N1 (stereo not shown) [Example 45, 2-(hydroxymethyl)-N-(isoquinolin-6-yl)-5-methyl-7-(1-methyl-1H-benzo[d]imidazol-6-yl)-4,7-dihydropyrazolo[1,5-a]pyrimidine-6-carboxamide] | > 500 nM | > 500 nM
COCC1CN(Cc2cc3n(n2)C(c2ccc(C(F)(F)F)c(F)c2)C(C(=O)Nc2ccc4cnccc4c2)=C(C)N3)C1 (stereo not shown) [Example 101, 7-(3-fluoro-4-(trifluoromethyl)phenyl)-N-(isoquinolin-6-yl)-2-((3-(methoxymethyl)azetidin-1-yl)methyl)-5-methyl-4,7-dihydropyrazolo[1,5-a]pyrimidine-6-carboxamide] | < 50 nM | < 50 nM
CC1=C(C(=O)Nc2ccc3cnccc3c2)C(C23CC4CC(CC(C4)C2)C3)n2nc(CO)cc2N1 (stereo not shown) [Example 48, 7-((3r,5r,7r)-adamantan-1-yl)-2-(hydroxymethyl)-N-(isoquinolin-6-yl)-5-methyl-4,7-dihydropyrazolo[1,5-a]pyrimidine-6-carboxamide] | 50 to 500 nM | 50 to 500 nM
CCOC(=O)c1cc2n(n1)C(c1ccc(F)cc1)C(C(=O)Nc1ccc3[nH]ncc3c1)=C(C)N2 (single isomer, unassigned) [Example 4B, ethyl 6-((1H-indazol-5-yl)carbamoyl)-7-(4-fluorophenyl)-5-methyl-4,7-dihydropyrazolo[1,5-a]pyrimidine-2-carboxylate] | < 50 nM | < 50 nM
CC1=C(C(=O)Nc2ccc3cnccc3c2)C(c2ccc(C(F)(F)F)c(F)c2)n2nc(C(=O)NC3CC3)cc2N1 (stereo not shown) [Example 125, N2-cyclopropyl-7-(3-fluoro-4-(trifluoromethyl)phenyl)-N6-(isoquinolin-6-yl)-5-methyl-4,7-dihydropyrazolo[1,5-a]pyrimidine-2,6-dicarboxamide] | < 50 nM | < 50 nM
CCOC(=O)c1cc2n(n1)C(c1ccc(C(F)(F)F)c(F)c1)C(C(=O)Nc1ccn3cnnc3c1)=C(C)N2 (stereo not shown) [Example 15, ethyl 6-([1,2,4]triazolo[4,3-a]pyridin-7-ylcarbamoyl)-7-(3-fluoro-4-(trifluoromethyl)phenyl)-5-methyl-4,7-dihydropyrazolo[1,5-a]pyrimidine-2-carboxylate] | > 500 nM | > 500 nM
CC1=C(C(=O)Nc2ccc3cnccc3c2)C(c2ccc(C(F)(F)F)c(F)c2)n2nc(N3CCN(C)CC3)cc2N1 (stereo not shown) [Example 136, 7-(3-Fluoro-4-(trifluoromethyl)phenyl)-N-(isoquinolin-6-yl)-5-methyl-2-(4-methylpiperazin-1-yl)-4,7-dihydropyrazolo[1,5-a]pyrimidine-6-carboxamide] | < 50 nM | < 50 nM
CCOC(=O)c1cc2n(n1)C(c1ccc(Cl)cc1F)C(C(=O)Nc1ccc3[nH]ncc3c1)=C(C)N2 (single isomer, unassigned) [Example 7B, ethyl 6-((1H-indazol-5-yl)carbamoyl)-7-(4-chloro-2-fluorophenyl)-5-methyl-4,7-dihydropyrazolo[1,5-a]pyrimidine-2-carboxylate] | < 50 nM | < 50 nM
CC1=C(C(=O)Nc2ccc3cnccc3c2)C(c2ccc(C(F)(F)F)c(F)c2)n2nc(NC(=O)CCN3CCCCC3)cc2N1 (single isomer, unassigned) [131B] |  | < 50 nM
